This is an account of results in PMC10763615, “Identification and engineering of potent cyclic peptides with selective or promiscuous binding through biochemical profiling and bioinformatic data analysis” (RSC Chemical Biology, 2023).

Holding throughout (type): binding
One assay addresses T1, FGF-R4 ECD (Homo sapiens, UniProt P22455).
T1 construct: DNA constructs for the extracellular domain (ECD) of human FGF-; HPC4 (C); made in house; host or cells: HEK 293-6E
T1 sequence (P22455 22-369 limits assumed): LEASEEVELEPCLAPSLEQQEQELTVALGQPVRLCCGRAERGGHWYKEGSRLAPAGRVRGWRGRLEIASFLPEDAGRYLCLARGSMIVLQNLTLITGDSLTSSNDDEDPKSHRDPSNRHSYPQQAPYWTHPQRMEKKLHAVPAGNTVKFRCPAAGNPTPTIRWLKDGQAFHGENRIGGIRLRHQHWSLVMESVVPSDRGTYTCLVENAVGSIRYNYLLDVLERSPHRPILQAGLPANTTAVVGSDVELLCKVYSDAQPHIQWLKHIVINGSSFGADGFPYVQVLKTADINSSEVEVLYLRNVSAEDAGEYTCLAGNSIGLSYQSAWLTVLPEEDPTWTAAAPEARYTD
The assay can be described thus: single concentration BLI of crude peptides. The essentials:
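Streptavidin biosensors carrying biotinylated FGF receptor ECD were immersed in peptide (~1 μM for crude single-point runs, a concentration series for purified peptides) and then in peptide-free buffer. KD was obtained by fitting the BLI association and dissociation curves.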

A further assay deals with T2, FGF-R1C ECD (Homo sapiens, UniProt P11362).
T2 sequence (P11362 22-376 limits assumed): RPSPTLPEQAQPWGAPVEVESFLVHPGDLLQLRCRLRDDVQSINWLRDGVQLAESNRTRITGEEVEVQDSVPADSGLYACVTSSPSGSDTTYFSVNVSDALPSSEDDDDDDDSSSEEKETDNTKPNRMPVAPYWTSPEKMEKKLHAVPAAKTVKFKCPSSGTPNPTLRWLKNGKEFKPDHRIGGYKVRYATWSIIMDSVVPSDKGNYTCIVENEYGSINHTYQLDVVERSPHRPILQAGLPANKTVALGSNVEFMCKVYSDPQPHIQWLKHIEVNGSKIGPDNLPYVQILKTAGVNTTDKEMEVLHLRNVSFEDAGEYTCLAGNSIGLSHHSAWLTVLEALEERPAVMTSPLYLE
The assay can be described thus: biochemical. More on the design: DNA constructs for the extracellular domain (ECD) of human FGF-; HPC4 (C); made in house; host or cells: HEK 293-6E. The essentials:
(§1)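 Biotinylated FGF-R ECD on streptavidin biosensors was dipped into ~1 μM crude peptide in PBS pH7.4 with 0.05% Tween-20 and 0.01% BSA for association, then into buffer for dissociation, and followed by BLI. Fitted KD values were adjusted for peptide concentration measured by UPLC-CAD.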

A further assay concerns the target T3, FGF-R3C ECD (Homo sapiens, UniProt P22607).
T3 sequence (P22607 23-375 limits assumed): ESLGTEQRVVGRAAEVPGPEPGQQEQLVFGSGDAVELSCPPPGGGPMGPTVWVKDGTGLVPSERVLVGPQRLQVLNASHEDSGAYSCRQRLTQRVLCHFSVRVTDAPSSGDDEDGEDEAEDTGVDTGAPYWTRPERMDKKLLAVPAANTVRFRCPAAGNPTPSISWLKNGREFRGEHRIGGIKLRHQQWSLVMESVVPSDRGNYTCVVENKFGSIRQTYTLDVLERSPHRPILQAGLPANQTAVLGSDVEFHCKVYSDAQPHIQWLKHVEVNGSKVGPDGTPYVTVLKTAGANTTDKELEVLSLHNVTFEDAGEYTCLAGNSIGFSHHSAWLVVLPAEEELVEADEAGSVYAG
The assay can be described thus: biochemical. More on the design: DNA constructs for the extracellular domain (ECD) of human FGF-; HPC4 (C); made in house; host or cells: HEK 293-6E. The essentials:
as §1

Setting [1] is: crude T18 selection 1 (1:1:1) peptides, single concentration BLI (Table S4), read-out: KD (4).
[2] abbreviates: crude NNK peptides, single concentration BLI (Table S3), read-out: KD (4).

Read-outs that look alike come from different tables or passages of the source. Positions of bridges follow the written chain, without caps; N, C: chain ends. Residues, ends and D or L forms follow the SMILES beside them.

For `CSCC[C@H](NC(C)=O)C(=O)N[C@H]1CSSC[C@@H](C(=O)NCC(=O)N[C@@H](CO)C(=O)NCC(=O)N[C@@H](CO)C(=O)N[C@@H](CC(=O)O)C(=O)N[C@@H](Cc2ccc(O)cc2)C(=O)N[C@@H](CCCCN)C(=O)N[C@@H](CC(=O)O)C(=O)N[C@@H](CC(=O)O)C(=O)N[C@@H](CC(=O)O)C(=O)N[C@@H](CC(=O)O)C(=O)N[C@@H](CCCCN)C(N)=O)NC(=O)[C@H](CCCCN)NC(=O)[C@H](CCCNC(=N)N)NC(=O)[C@H](Cc2c[nH]cn2)NC(=O)[C@H](C(C)C)NC(=O)[C@H](CC(C)C)NC(=O)[C@H](CCC(N)=O)NC(=O)[C@H](Cc2ccc(O)cc2)NC(=O)[C@H](Cc2ccc(O)cc2)NC(=O)[C@H](CCCCN)NC(=O)[C@H](C(C)C)NC(=O)[C@H](Cc2c[nH]c3ccccc23)NC(=O)[C@H](CCCNC(=N)N)NC1=O` (Ac-MCRWVKYYQLVHRKCGSGSDYKDDDDK-NH2; disulfide 2-15), the Kd is 1 nM at FGF-R4 ECD (setting [1]), over 10000 nM on FGF-R1C ECD and over 10000 nM on FGF-R3C ECD.

For the compound `CSCC[C@H](NC(C)=O)C(=O)N[C@H]1CSSC[C@@H](C(=O)NCC(=O)N[C@@H](CO)C(=O)NCC(=O)N[C@@H](CO)C(=O)N[C@@H](CC(=O)O)C(=O)N[C@@H](Cc2ccc(O)cc2)C(=O)N[C@@H](CCCCN)C(=O)N[C@@H](CC(=O)O)C(=O)N[C@@H](CC(=O)O)C(=O)N[C@@H](CC(=O)O)C(=O)N[C@@H](CC(=O)O)C(=O)N[C@@H](CCCCN)C(N)=O)NC(=O)[C@H](CCC(=O)O)NC(=O)[C@H](CCCNC(=N)N)NC(=O)[C@H](CCCNC(=N)N)NC(=O)[C@H](Cc2c[nH]cn2)NC(=O)[C@H](Cc2ccccc2)NC(=O)[C@H](CCC(N)=O)NC(=O)[C@H](CC(C)C)NC(=O)[C@H](Cc2ccc(O)cc2)NC(=O)[C@H](Cc2ccc(O)cc2)NC(=O)[C@H](Cc2c[nH]c3ccccc23)NC(=O)[C@H](CC(C)C)NC1=O` (Ac-MCLWYYLQFHRRECGSGSDYKDDDDK-NH2; disulfide 2-14), the figures for the Kd at FGF-R4 ECD (setting [1]), on FGF-R1C ECD and at FGF-R3C ECD were 5 nM, 21 nM and over 10000 nM, respectively.

As for `CC[C@H](C)[C@@H]1NC(=O)[C@H](Cc2ccc(O)cc2)NC(=O)[C@H](CCCNC(=N)N)NC(=O)[C@H](Cc2c[nH]cn2)NC(=O)[C@@H](NC(=O)[C@H](CCSC)NC(C)=O)CSSC[C@@H](C(=O)NCC(=O)N[C@@H](CO)C(=O)NCC(=O)N[C@@H](CO)C(=O)N[C@@H](CC(=O)O)C(=O)N[C@@H](Cc2ccc(O)cc2)C(=O)N[C@@H](CCCCN)C(=O)N[C@@H](CC(=O)O)C(=O)N[C@@H](CC(=O)O)C(=O)N[C@@H](CC(=O)O)C(=O)N[C@@H](CC(=O)O)C(=O)N[C@@H](CCCCN)C(N)=O)NC(=O)[C@H](Cc2c[nH]cn2)NC(=O)[C@H](Cc2c[nH]c3ccccc23)NC(=O)[C@H](Cc2ccc(O)cc2)NC(=O)[C@H](CC(=O)O)NC(=O)[C@H](CC(C)C)NC(=O)[C@H](Cc2ccc(O)cc2)NC1=O` (Ac-MCHRYIYLDYWHCGSGSDYKDDDDK-NH2; disulfide 2-13), the Kd was 44 nM at FGF-R4 ECD, over 10000 nM at FGF-R1C ECD and over 10000 nM at FGF-R3C ECD.

In the case of `CSCC[C@H](NC(C)=O)C(=O)N[C@H]1CSSC[C@@H](C(=O)NCC(=O)N[C@@H](CO)C(=O)NCC(=O)N[C@@H](CO)C(=O)N[C@@H](CC(=O)O)C(=O)N[C@@H](Cc2ccc(O)cc2)C(=O)N[C@@H](CCCCN)C(=O)N[C@@H](CC(=O)O)C(=O)N[C@@H](CC(=O)O)C(=O)N[C@@H](CC(=O)O)C(=O)N[C@@H](CC(=O)O)C(=O)N[C@@H](CCCCN)C(N)=O)NC(=O)[C@H]([C@@H](C)O)NC(=O)[C@H](CCSC)NC(=O)[C@H](CC(C)C)NC(=O)[C@H](CCCNC(=N)N)NC(=O)[C@H](Cc2c[nH]c3ccccc23)NC(=O)[C@H](CC(C)C)NC(=O)[C@H](CC(C)C)NC(=O)[C@H](Cc2ccccc2)NC(=O)[C@H](Cc2ccc(O)cc2)NC(=O)[C@H](CCCCN)NC(=O)[C@@H]2CCCN2C1=O` (Ac-MCPKYFLLWRLMTCGSGSDYKDDDDK-NH2; disulfide 2-14), the Kd on FGF-R4 ECD (setting [2]) is 1840 nM; at FGF-R1C ECD it was over 10000 nM; at FGF-R3C ECD, over 10000 nM.

Take `CSCC[C@H](N)C(=O)N[C@H]1CSSC[C@@H](C(=O)NCC(=O)N[C@@H](CO)C(=O)NCC(=O)N[C@@H](CO)C(=O)N[C@@H](CC(=O)O)C(=O)N[C@@H](Cc2ccc(O)cc2)C(=O)N[C@@H](CCCCN)C(=O)N[C@@H](CC(=O)O)C(=O)N[C@@H](CC(=O)O)C(=O)N[C@@H](CC(=O)O)C(=O)N[C@@H](CC(=O)O)C(=O)N[C@@H](CCCCN)C(N)=O)NC(=O)[C@H](Cc2ccccc2)NC(=O)[C@H](C(C)C)NC(=O)[C@H](Cc2ccccc2)NC(=O)[C@@H]2CCCN2C(=O)[C@H](CC(C)C)NC(=O)[C@H](Cc2c[nH]c3ccccc23)NC(=O)[C@H](CO)NC(=O)[C@H](CC(=O)O)NC(=O)[C@H](Cc2ccccc2)NC(=O)[C@H](C(C)C)NC1=O` (H-MCVFDSWLPFVFCGSGSDYKDDDDK-NH2; disulfide 2-13): the Kd on FGF-R4 ECD (setting [2]) is over 10000 nM; on FGF-R1C ECD, over 10000 nM; on FGF-R3C ECD, 1060 nM.

For `CSCC[C@H](NC(C)=O)C(=O)N[C@H]1CSSC[C@@H](C(=O)NCC(=O)N[C@@H](CO)C(=O)NCC(=O)N[C@@H](CO)C(=O)N[C@@H](CC(=O)O)C(=O)N[C@@H](Cc2ccc(O)cc2)C(=O)N[C@@H](CCCCN)C(=O)N[C@@H](CC(=O)O)C(=O)N[C@@H](CC(=O)O)C(=O)N[C@@H](CC(=O)O)C(=O)N[C@@H](CC(=O)O)C(=O)N[C@@H](CCCCN)C(N)=O)NC(=O)[C@H](Cc2c[nH]c3ccccc23)NC(=O)[C@H](CC(C)C)NC(=O)[C@H](CCCNC(=N)N)NC(=O)[C@H](Cc2ccc(O)cc2)NC(=O)[C@H](CC(C)C)NC(=O)[C@H](Cc2c[nH]c3ccccc23)NC(=O)[C@H](CC(C)C)NC(=O)[C@H](CC(=O)O)NC(=O)[C@H](CCCCN)NC(=O)[C@H](CO)NC(=O)[C@H](Cc2ccc(O)cc2)NC(=O)[C@H](CCCCN)NC(=O)[C@H](Cc2ccc(O)cc2)NC1=O` (Ac-MCYKYSKDLWLYRLWCGSGSDYKDDDDK-NH2; disulfide 2-16), the results for the Kd on FGF-R4 ECD (setting [1]), on FGF-R1C ECD and at FGF-R3C ECD were 22 nM, 502 nM and over 10000 nM, respectively.

For the compound `CC[C@H](C)[C@@H]1NC(=O)[C@H](CCCCN)NC(=O)[C@@H](NC(=O)[C@H](CCSC)NC(C)=O)CSSC[C@@H](C(=O)NCC(=O)N[C@@H](CO)C(=O)NCC(=O)N[C@@H](CO)C(=O)N[C@@H](CC(=O)O)C(=O)N[C@@H](Cc2ccc(O)cc2)C(=O)N[C@@H](CCCCN)C(=O)N[C@@H](CC(=O)O)C(=O)N[C@@H](CC(=O)O)C(=O)N[C@@H](CC(=O)O)C(=O)N[C@@H](CC(=O)O)C(=O)N[C@@H](CCCCN)C(N)=O)NC(=O)[C@H](C(C)C)NC(=O)[C@H](Cc2c[nH]c3ccccc23)NC(=O)[C@H](Cc2c[nH]c3ccccc23)NC(=O)[C@H](Cc2ccccc2)NC(=O)[C@H](CCCCN)NC(=O)[C@H](Cc2c[nH]cn2)NC(=O)[C@H](CC(=O)O)NC(=O)[C@H](C(C)C)NC(=O)[C@H](Cc2ccc(O)cc2)NC(=O)[C@H](Cc2c[nH]c3ccccc23)NC1=O` (Ac-MCKIWYVDHKFWWVCGSGSDYKDDDDK-NH2; disulfide 2-15), the figures for the Kd on FGF-R4 ECD (setting [1]), at FGF-R1C ECD and at FGF-R3C ECD were 2 nM, over 10000 nM and over 10000 nM, respectively.

Broadly, the Kd is the concentration at which binding is half-saturated.
